Assay results reported in ChEMBL document CHEMBL1201862, “PubChem BioAssay data set” (2004).
Where “and” joins values, the source holds several entries; their conditions need not be identical. Identical values can stand only once. Calls of active or inactive are those of the source. Numbered stars: 1 amine (or outer) side, 2 acyl side, 3 side chain; on linkers, the order of the positions; unused ones are H or OH. Square brackets hold non-standard residues; d marks the D form. Peptide text beside a SMILES is read from it. ξ: configuration not given here. ξR = N=C(N)NCCCC(N)C(=O)O; ξF = NC(Cc1ccccc1)C(=O)O; CO = O=C([*:1])[*:2]

Assays:
[1] = molecular target: T1, Aminopeptidase N (Plasmodium falciparum FcB1/Columbia, UniProt O96935); experiment: P. falciparum M1AAP inhibitors, biochemical, fluorogenic H-Leu-NHMec substrate, 1536-well (AID 1445); set-up: species or system Plasmodium falciparum 3D7, 3D7
T1 sequence (O96935 whole entry): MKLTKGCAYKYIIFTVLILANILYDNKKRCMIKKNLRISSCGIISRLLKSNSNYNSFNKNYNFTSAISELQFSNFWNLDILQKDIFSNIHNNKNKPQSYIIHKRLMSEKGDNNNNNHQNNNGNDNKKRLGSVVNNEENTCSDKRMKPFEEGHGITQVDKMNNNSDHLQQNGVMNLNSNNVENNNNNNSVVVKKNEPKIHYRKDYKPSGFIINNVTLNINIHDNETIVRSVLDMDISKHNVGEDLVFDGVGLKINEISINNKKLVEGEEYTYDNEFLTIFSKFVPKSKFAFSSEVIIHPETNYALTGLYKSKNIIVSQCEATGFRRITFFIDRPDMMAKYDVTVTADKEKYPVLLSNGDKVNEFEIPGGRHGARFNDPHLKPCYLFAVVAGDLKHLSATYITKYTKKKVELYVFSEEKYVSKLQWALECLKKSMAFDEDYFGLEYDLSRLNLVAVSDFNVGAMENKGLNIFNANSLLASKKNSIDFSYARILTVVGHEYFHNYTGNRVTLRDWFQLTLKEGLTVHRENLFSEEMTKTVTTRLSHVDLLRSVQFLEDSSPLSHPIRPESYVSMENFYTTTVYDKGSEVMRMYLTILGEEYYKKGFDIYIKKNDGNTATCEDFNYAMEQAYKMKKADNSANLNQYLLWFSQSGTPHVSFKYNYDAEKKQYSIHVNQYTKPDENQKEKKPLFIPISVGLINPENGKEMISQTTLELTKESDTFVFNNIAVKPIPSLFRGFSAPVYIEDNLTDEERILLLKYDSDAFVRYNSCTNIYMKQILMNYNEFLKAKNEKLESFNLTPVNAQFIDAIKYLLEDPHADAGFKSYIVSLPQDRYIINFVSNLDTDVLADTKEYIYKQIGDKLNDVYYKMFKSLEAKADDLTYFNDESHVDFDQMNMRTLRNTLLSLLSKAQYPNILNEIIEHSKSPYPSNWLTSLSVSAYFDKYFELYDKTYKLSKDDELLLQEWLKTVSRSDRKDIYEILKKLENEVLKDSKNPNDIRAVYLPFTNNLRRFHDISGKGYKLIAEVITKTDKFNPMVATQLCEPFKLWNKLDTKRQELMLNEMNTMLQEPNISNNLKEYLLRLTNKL

[2] = molecular target: G-protein coupled receptor 55 (Homo sapiens, UniProt Q9Y2T6); experiment: GPR55 antagonists blocking LPI-driven arrestin recruitment, primary screen, imaging, U2OS, beta-arrestin-GFP, LPI agonist (AID 2013); assay type: functional;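 also: antagonist potency measured as reduced agonist-driven arrestin aggregation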
[3] = Luminescence Cell-Based Dose Retest to Confirm Inhibitors of Cancer Stem Cells. [Related pubchem assays (depositor defined):AID2717, AID2721]; assay type: functional; details: Homo sapiens
[4] = molecular target: T2, Microphthalmia-associated transcription factor (Homo sapiens, UniProt O75030); experiment: TRPM1 promoter luciferase signal decrease, dose response, MITF inhibitor project, cell-based, SK-MEL-5, cherry-picked, set 3 (AID 493073); assay type: functional
T2 sequence (O75030 whole entry): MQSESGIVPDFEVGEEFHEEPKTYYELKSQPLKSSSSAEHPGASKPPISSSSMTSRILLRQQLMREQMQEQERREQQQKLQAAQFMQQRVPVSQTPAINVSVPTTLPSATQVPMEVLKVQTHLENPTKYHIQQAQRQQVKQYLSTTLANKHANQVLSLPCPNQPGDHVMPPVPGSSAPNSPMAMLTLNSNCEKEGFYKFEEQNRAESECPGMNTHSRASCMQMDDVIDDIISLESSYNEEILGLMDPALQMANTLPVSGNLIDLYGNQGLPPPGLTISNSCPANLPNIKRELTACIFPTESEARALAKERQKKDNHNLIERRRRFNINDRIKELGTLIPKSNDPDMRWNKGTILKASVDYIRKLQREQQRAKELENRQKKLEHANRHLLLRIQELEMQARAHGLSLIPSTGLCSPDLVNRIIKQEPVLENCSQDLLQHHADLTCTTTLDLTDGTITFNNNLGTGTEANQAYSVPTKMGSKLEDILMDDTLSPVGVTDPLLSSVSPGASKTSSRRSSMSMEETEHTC

[5] = molecular target: T3, Heat shock factor protein 1 (Mus musculus, UniProt P38532); experiment: inhibition of MG132-induced HSE-luciferase signal, confirmation, cell-based, NIH3T3, luminescence, dose retest (AID 2382); assay type: functional;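 also: NIH3T3 fibroblasts with HSF1-driven luciferase reporter stressed by proteasome inhibitor MG132; luminescence from HSF1-driven luciferase expression after 8 hours of MG132 stress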
T3 sequence (P38532 whole entry): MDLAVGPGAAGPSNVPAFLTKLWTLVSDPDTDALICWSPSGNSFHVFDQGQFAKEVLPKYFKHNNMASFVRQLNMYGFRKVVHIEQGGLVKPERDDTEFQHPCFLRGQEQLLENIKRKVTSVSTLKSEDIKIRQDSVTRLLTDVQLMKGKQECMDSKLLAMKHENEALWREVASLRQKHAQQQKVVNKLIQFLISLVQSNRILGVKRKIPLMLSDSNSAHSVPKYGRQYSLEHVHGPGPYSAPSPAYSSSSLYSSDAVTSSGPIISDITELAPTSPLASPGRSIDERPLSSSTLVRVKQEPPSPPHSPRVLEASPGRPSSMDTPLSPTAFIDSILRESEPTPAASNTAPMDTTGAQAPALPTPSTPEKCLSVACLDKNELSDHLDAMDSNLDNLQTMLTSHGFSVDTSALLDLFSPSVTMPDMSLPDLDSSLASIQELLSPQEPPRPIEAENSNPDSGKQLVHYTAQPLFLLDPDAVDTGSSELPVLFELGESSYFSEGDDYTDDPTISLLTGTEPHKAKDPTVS

[6] = molecular target: T4, Coagulation factor XII (Homo sapiens, UniProt P00748); assay type: functional;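 also: activated factor XIIa alpha cleaving a fluorogenic AMC peptide substrate; inhibitor potency from loss of enzyme activity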
T4 sequence (P00748 whole entry): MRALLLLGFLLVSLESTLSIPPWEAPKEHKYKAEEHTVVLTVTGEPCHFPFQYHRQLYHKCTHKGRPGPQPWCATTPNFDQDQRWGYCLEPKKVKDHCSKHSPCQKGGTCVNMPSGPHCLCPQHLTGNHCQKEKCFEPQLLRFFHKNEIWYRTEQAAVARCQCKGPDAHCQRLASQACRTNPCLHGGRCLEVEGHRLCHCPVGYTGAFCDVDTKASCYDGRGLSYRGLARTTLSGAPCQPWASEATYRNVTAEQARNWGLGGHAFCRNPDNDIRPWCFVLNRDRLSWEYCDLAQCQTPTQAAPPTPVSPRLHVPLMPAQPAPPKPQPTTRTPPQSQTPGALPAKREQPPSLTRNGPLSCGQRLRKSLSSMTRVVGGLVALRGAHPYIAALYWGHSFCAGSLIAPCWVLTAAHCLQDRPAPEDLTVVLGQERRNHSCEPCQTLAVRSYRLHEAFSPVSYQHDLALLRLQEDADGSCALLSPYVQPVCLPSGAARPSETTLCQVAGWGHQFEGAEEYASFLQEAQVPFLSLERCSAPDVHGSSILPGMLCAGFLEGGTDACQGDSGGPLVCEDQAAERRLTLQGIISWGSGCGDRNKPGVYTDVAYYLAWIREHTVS

[7] = molecular target: Cytochrome P450 3A4 (Homo sapiens, UniProt P08684); details: Potency;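 also: confirmatory qHTS run detecting inhibitors and substrates of CYP3A4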
[8] = molecular target: T5, Alkaline phosphatase, tissue-nonspecific isozyme (Homo sapiens, UniProt P05186); experiment: human TNAP enzyme inhibitors, SAR follow-up, biochemical, luminescent, dose response (AID 1056)
T5 sequence (P05186 whole entry): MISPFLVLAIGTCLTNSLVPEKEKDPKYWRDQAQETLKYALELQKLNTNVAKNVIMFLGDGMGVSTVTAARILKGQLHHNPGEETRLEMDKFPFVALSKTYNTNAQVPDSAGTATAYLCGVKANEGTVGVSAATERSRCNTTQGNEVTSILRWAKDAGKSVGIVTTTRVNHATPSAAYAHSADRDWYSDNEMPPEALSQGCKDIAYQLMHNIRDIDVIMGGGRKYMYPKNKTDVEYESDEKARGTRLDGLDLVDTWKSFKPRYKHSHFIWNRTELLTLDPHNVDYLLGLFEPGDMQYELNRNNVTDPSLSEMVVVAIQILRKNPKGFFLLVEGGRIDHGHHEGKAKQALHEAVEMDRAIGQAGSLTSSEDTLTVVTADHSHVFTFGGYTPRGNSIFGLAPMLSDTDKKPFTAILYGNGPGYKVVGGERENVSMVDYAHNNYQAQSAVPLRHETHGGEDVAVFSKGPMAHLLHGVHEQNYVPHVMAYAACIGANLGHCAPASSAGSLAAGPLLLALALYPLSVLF

[9] = molecular target: Glyceraldehyde-3-phosphate dehydrogenase (Homo sapiens, UniProt P04406)
[10] = test system: H4; experiment: Luminescence Cell-Based Dose Response HTS to Identify Activators of 5'UTR Stem-Loop Driven Prion Protein mRNA Translation in H4 Neuroglioblastoma Cells. [Related pubchem assays: 1829 (Project Summary), 1814 (Primary HTS)]; assay type: functional; details: Homo sapiens
[11] = Luminescence Cell-Based Dose Response HTS to Identify Activators of Luciferase Translation or Activity in H4 […] Cells. [Related pubchem assays: 1829 (Project Summary), 1814 (Primary HTS)]; assay type: functional
[12] = Luminescence Cell-Based Dose Confirmation HTS to Identify Activators of 5'UTR Stem-Loop Driven Alpha-Synuclein mRNA Translation in H4 Neuroglioblastoma Cells. [Related pubchem assays: 1829 (Project Summary), 1814 (Primary HTS)]; assay type: functional
[13] = Luminescent dose response cell-based high throughput screening assay for inhibitors of the Janus kinase 2 mutant JAK2V617F. [Related pubchem assays: 1446 (Primary screen.), 1521 (Confirmation assay.), 1486 (Counter screen.)]; assay type: functional
[14] = molecular target: T6, Protein RecA (Mycobacterium tuberculosis, UniProt P9WHJ3); experiment: Fluorescence Cell-Free Homogeneous Dose Retest to Identify Inhibitors of RecA-Intein Splicing Activity. [Related pubchem assays (depositor defined):AID2097, AID2223, AID489010, AID492950]; assay type: functional
T6 sequence (P9WHJ3 whole entry): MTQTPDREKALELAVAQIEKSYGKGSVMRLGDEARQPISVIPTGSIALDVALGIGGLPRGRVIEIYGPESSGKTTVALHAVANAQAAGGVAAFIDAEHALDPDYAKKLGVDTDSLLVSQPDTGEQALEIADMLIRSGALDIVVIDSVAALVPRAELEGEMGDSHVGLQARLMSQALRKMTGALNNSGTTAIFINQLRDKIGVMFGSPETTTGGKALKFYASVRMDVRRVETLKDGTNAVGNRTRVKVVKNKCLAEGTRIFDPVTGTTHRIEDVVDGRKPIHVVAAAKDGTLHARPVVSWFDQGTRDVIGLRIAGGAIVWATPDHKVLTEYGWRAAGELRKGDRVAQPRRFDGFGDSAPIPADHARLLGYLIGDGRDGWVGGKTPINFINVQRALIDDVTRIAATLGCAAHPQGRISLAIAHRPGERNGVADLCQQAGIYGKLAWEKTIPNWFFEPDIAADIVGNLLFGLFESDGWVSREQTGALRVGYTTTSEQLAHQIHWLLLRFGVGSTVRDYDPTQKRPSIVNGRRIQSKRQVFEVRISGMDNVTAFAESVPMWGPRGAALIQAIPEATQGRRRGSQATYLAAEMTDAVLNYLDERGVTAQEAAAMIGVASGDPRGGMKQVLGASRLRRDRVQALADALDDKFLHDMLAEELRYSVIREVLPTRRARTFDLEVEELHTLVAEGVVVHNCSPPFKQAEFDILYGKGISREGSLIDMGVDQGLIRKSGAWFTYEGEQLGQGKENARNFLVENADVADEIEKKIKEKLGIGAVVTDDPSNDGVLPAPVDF

G-protein coupled receptor 55, sequence (Q9Y2T6 whole entry): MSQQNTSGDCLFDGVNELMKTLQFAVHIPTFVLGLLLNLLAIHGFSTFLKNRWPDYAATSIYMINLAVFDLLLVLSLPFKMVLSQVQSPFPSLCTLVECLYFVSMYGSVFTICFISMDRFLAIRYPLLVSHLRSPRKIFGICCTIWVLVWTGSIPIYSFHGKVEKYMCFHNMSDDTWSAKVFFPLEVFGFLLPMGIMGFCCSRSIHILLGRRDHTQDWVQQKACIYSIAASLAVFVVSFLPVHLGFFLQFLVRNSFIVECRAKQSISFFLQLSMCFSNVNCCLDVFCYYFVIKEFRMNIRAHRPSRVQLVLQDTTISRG
Cytochrome P450 3A4, sequence (P08684 whole entry): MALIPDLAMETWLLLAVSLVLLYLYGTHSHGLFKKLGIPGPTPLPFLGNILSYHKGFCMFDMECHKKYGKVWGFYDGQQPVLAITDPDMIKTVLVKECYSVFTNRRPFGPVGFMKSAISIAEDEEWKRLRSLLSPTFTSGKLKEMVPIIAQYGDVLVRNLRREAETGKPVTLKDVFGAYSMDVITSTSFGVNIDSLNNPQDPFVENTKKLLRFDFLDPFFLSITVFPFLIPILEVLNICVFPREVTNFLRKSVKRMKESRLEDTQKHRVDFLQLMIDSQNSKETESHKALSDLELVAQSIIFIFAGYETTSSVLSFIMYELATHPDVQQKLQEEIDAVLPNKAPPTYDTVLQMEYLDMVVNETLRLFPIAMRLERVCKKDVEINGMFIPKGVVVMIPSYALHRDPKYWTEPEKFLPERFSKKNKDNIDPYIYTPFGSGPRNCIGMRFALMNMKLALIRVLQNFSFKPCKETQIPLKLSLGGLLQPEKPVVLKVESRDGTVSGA
Glyceraldehyde-3-phosphate dehydrogenase, sequence (P04406 whole entry): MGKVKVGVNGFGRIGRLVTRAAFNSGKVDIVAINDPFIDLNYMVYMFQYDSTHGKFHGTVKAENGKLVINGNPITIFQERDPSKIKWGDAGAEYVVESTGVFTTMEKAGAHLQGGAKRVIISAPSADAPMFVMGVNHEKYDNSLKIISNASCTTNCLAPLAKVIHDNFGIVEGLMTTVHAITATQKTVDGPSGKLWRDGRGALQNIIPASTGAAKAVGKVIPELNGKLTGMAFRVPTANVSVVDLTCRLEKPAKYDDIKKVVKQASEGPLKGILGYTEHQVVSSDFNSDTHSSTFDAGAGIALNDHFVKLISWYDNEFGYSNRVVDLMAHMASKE

CCCCc1cc(=O)oc2cc(C)cc(OCc3nn[nH]n3)c12
IC50 [1]: 63.6 µM (active)

CCOC(=O)C1=C(Nc2ccc(OC)cc2)S/C(=C\c2ccc(OCC(=O)O)c(OC)c2)C1=O
IC50 [1]: 87.3 µM (active)

CC(C)CN=C(NS(=O)(=O)c1ccccc1)C(Cl)(Cl)Cl
IC50 [2]: 2.02 µM (active)
AC50 [3]: 2.15 µM (active)
AC50 [4]: 11.1 µM (active)
EC50 [5]: 7.41 µM (active)

CC(C)[C@H](NC(=O)[C@H](CCCN=C(N)N)NC(=O)NC(Cc1ccccc1)C(=O)O)C(=O)NC(C=O)CCCN=C(N)N (stereo partly drawn) ({ξF-CO}-Arg-Val-[ξR]-aldehyde)
IC50 [6]: 5.87 µM (active)

O=C(Nc1ccccc1N1CCCCC1)c1ccc(N2C(=O)c3ccccc3C2=O)cc1
IC50 [2]: 1.99 µM (active)

COC(=O)[C@@H]1C[C@@H]2CC[C@@H](O)C[C@@H]2N1Cc1ccc(N2CCOCC2)cc1
AC50 [7]: 3.98 µM (inconclusive)

CNNC
AC50 [7]: 31.6 µM (inconclusive)

O=S(=O)(Nc1ccc2ccccc2c1)c1cc(Cl)ccc1Cl
IC50 [8]: > 100 µM (inactive) and > 10 µM (inactive)
IC50 [9]: > 100 µM (not active)

CCCN1[C@H](C(=O)OC)C[C@@H]2CC[C@@H](O)C[C@@H]21
AC50 [7]: 15.8 µM (inconclusive)

NS(=O)(=O)c1ccc(CCNC(=O)COC(=O)CCSc2ccc(Cl)cc2)cc1
IC50 [1]: 46.8 µM (active)

Oc1c2nc3cccc(Cl)c3c-2ncn1CCN1CCCCC1
IC50 [6]: > 50 µM (inactive)

COc1ccc(OC)c(NS(=O)(=O)c2ccc(SC)cc2)c1
EC50 [10]: 44.8 µM (active)
EC50 [11]: 6.98 µM (active)
EC50 [12]: > 120 µM (not active)
IC50 [13]: 3.35 µM (active)

C=C(C)C(O)/C=C/c1ccccc1OC (centres undefined)
AC50 [7]: 2.51 µM (inconclusive)

CN(CC(O)CON=C1c2ccccc2-c2ccccc21)S(=O)(=O)c1ccc(Br)cc1 (centres undefined)
IC50 [2]: 2.14 µM (active)
AC50 [3]: 4.11 µM (active)

O=C(CCl)N(C/C=C/c1ccccc1)c1ccc2c(c1)OCCO2
EC50 [14]: 356 nM (active)
IC50 [13]: 0.605 µM (active)
EC50 [5]: 1.67 µM (active)

CC(C)(C)C(=O)N1N=C(Nc2ccccc2)SC1(C)C
IC50 [6]: > 50 µM (inactive)

COC(=O)c1ccc(C23CC4(C2)[C@H](CN(C)[C@@H]4c2ccccc2)C3c2ccc(C(F)(F)F)cc2)cc1 (some centres undefined)
AC50 [7]: 15.8 µM (inconclusive)

NCc1cc(-c2cccnc2)n[nH]1
IC50 [8]: > 100 µM (inactive)
IC50 [9]: > 100 µM (not active)
